Data from article PMC5487684, “Safety, Pharmacokinetics, and Antiviral Activity of a Novel HIV Antiviral, ABX464, in Treatment-Naive HIV-Infected Subjects in a Phase 2 Randomized, Controlled Study” (Antimicrobial Agents and Chemotherapy, 2017).

System: HIV-infected subjects
Experiment: Safety and tolerability (TEAEs, ECG, laboratory) after repeated oral administration, phase 2a study
Assay type: in vivo, human
Conditions: for Subjects experiencing at least one TEAE: Abdominal pain / Subjects experiencing at least one TEAE: Arthralgia / Subjects experiencing at least one TEAE: Back pain / Subjects experiencing at least one TEAE: Diarrhea / Subjects experiencing at least one TEAE: Flank pain / Subjects experiencing at least one TEAE: Gastrointestinal disorders / Subjects experiencing at least one TEAE: Headache / Subjects experiencing at least one TEAE: Injury, poisoning, and procedural complications / Subjects experiencing at least one TEAE: Musculoskeletal and connective tissue disorders / Subjects experiencing at least one TEAE: Nausea / Subjects experiencing at least one TEAE: Neck pain / Subjects experiencing at least one TEAE: Nervous system disorders / Subjects experiencing at least one TEAE: Pain in extremity / Subjects experiencing at least one TEAE: Sciatica, back pain / Subjects experiencing at least one TEAE: Skin abrasion / Subjects experiencing at least one TEAE: Total / Subjects experiencing at least one TEAE: Upper abdominal pain / Subjects experiencing at least one TEAE: Vomiting: fasted
Procedure: Participants were assigned to one of eight groups; each group (with one exception) included eight subjects receiving either ABX464 (n = 6) or the corresponding placebo (n = 2) according to a randomization code. […] In the present study with HIV-infected subjects, the first dose administered was 25 mg, given once or 3 times a day over a 2- to 3-week period. This initial dose was therefore considered safe for assessment of the safety and tolerability of ABX464 after repeated oral administrations in subjects infected by HIV and determination of the potential effect on the HIV viral load.
The final dosing protocol for each of the eight groups was as follows: group 1, 25 mg every 3 days for 2 to 3 weeks under fasted conditions; group 2, 25 mg once a day (q.d.) for 2 to 3 weeks under fasted conditions; group 3, 50 mg once a day for 2 to 3 weeks under fasted conditions; group 4, 50 mg 3 times a day (t.i.d.) for 4 weeks under fed conditions; group 5, 75 mg once a day for 2 weeks under fed conditions; group 6, 100 mg once a day for 2 to 3 weeks under fasted conditions; group 7, 150 mg every 3 days for 2 to 3 weeks under fed conditions; and group 8, 150 mg once a day for 2 weeks under fed conditions. Per the study protocol, the treatment period was defined as 2 weeks. […] The decision to proceed to the next highest dose was determined by the data and safety monitoring board after review of the laboratory safety data, vital signs, ECGs, and adverse event reports from the group receiving the current dose after 2 weeks of treatment.
Subjects were hospitalized from the day prior to the first dose to at least the morning of day 2. They were orally dosed with 25-mg capsules of ABX464 with 240 ml water under fed or fasted conditions. According to the group, subjects were dosed with 1, 2, 3, 4, or 6 capsules to deliver 25 mg, 50 mg, 75 mg, 100 mg, or 150 mg product, respectively, or the same number of placebo capsules.
Safety assessments and laboratory tests were carried out according to the schedules described in Table S4 for groups dosed every day, every 3 days, and 3 times a day. Follow-up visits were scheduled for 7 days after the last dose and subsequently once every week in order to assess the elimination of the main ABX464 metabolite and to assess the viral load. Follow-up visits were terminated when the virus load was within 0.5 log of the baseline value or after 3 follow-up visits, whichever came first. Prior to the statistical analyses, AEs were coded using the Medical Dictionary for Regulatory Activities (MedDRA dictionary; last available version) in order to be tabulated by system organ class (SOC) and preferred term (PT). The AEs were analyzed according to the treatment emergence phase from the first study drug administration on day 1 up to 48 h after the last study drug administration. The number and percentage of subjects with at least one TEAE were tabulated by SOC and PT for each group and dose. The number of occurrences of TEAEs was also analyzed in the same way by SOC and PT for each group and dose, by grade of severity for each group and dose, and by level of causality to the study drug for each group and dose.

[1] = Group 1 (n = 6), 25 mg every 3 days, Mild
[2] = Group 1 (n = 6), 25 mg every 3 days, Moderate
[3] = Group 2 (n = 6), 25 mg q.d., Mild
[4] = Group 2 (n = 6), 25 mg q.d., Moderate

FC(F)(F)Oc1ccc(Nc2ccc3cccc(Cl)c3n2)cc1 [ABX464] was tested, and the Nausea frequency (75 mg q.d.) was 66.7%, the “Subjects with a skin rash episode” value (75 mg q.d. under fed conditions, one episode of moderate intensity) was “two” and the “Subjects with vomiting episodes” value (150 mg every 3 days) was 50.0%. For the same molecule, the Nausea frequency (150 mg q.d.) was 100%, the Subjects reporting vomiting (16 subjects overall, no vomiting episodes in placebo) was 32% and the “Severity of adverse events” value (ABX464 treatment group) was “mild to moderate”. For the same molecule, the “TEAEs leading to treatment discontinuation” value (ABX464 treatment group) was “none of the TEAEs led to treatment discontinuation”, the “Subjects reporting at least one episode of headache” value (ABX464 treatment groups) was 56% and the “Subjects experiencing at least one TEAE: Abdominal pain” value [1] was 0 (0.0) No. (%). For the same molecule, the “Subjects experiencing at least one TEAE: Arthralgia” value (shortened to “Subjects experiencing … Arthralgia”) [1] was 0 (0.0) No. (%), the “Subjects experiencing at least one TEAE: Back pain” value [1] was 0 (0.0) No. (%) and the “Subjects experiencing at least one TEAE: Diarrhea” value (“Subjects experiencing … Diarrhea” below) [1] was 0 (0.0) No. (%). The “Subjects experiencing at least one TEAE: Flank pain” value (“Subjects experiencing … Flank pain” below) [1] was 0 (0.0) No. (%), the “Subjects experiencing at least one TEAE: Gastrointestinal disorders” value [1] was 2 (33.3) No. (%) and the “Subjects experiencing at least one TEAE: Headache” value (from here on “Subjects experiencing … Headache”) [1] was 0 (0.0) No. (%). The “Subjects experiencing at least one TEAE: Injury, poisoning, and procedural complications” value [1] was 0 (0.0) No. (%), the “Subjects experiencing at least one TEAE: Musculoskeletal and connective tissue disorders” value [1] was 0 (0.0) No. (%) and the “Subjects experiencing at least one TEAE: Nausea” value (“Subjects experiencing … Nausea” for short) [1] was 1 (16.7) No. (%). The “Subjects experiencing at least one TEAE: Neck pain” value (shortened to “Subjects experiencing … Neck pain”) [1] was 0 (0.0) No. (%), the “Subjects experiencing at least one TEAE: Nervous system disorders” value [1] was 0 (0.0) No. (%) and the “Subjects experiencing at least one TEAE: Pain in extremity” value (shortened to “Subjects experiencing … in extremity”) [1] was 0 (0.0) No. (%). The “Subjects experiencing at least one TEAE: Sciatica, back pain” value [1] was 0 (0.0) No. (%), the “Subjects experiencing at least one TEAE: Skin abrasion” value (shortened to “Subjects experiencing … Skin abrasion”) [1] was 0 (0.0) No. (%) and the “Subjects experiencing at least one TEAE: Total” value (shortened to “Subjects experiencing … Total”) [1] was 2 (33.3) No. (%). For the same molecule, the “Subjects experiencing at least one TEAE: Upper abdominal pain” value [1] was 0 (0.0) No. (%), the “Subjects experiencing at least one TEAE: Vomiting” value (“Subjects experiencing … Vomiting” for short) [1] was 1 (16.7) No. (%) and the “Subjects experiencing at least one TEAE: Abdominal pain” value [2] was 0 (0.0) No. (%). For the same molecule, the “Subjects experiencing … Arthralgia” value [2] was 0 (0.0) No. (%), the “Subjects experiencing at least one TEAE: Back pain” value [2] was 0 (0.0) No. (%) and the “Subjects experiencing … Diarrhea” value [2] was 0 (0.0) No. (%). The “Subjects experiencing … Flank pain” value [2] was 0 (0.0) No. (%), the “Subjects experiencing … Headache” value [2] was 0 (0.0) No. (%) and the “Subjects experiencing at least one TEAE: Injury, poisoning, and procedural complications” value [2] was 0 (0.0) No. (%). For the same molecule, the “Subjects experiencing at least one TEAE: Musculoskeletal and connective tissue disorders” value [2] was 1 (16.7) No. (%), the “Subjects experiencing … Nausea” value [2] was 0 (0.0) No. (%) and the “Subjects experiencing … Neck pain” value [2] was 0 (0.0) No. (%). The “Subjects experiencing at least one TEAE: Nervous system disorders” value [2] was 0 (0.0) No. (%), the “Subjects experiencing … in extremity” value [2] was 0 (0.0) No. (%) and the “Subjects experiencing at least one TEAE: Sciatica, back pain” value [2] was 1 (16.7) No. (%). The “Subjects experiencing … Skin abrasion” value [2] was 0 (0.0) No. (%), the “Subjects experiencing … Total” value [2] was 2 (33.3) No. (%) and the “Subjects experiencing at least one TEAE: Upper abdominal pain” value [2] was 0 (0.0) No. (%). The “Subjects experiencing … Vomiting” value [2] was 0 (0.0) No. (%), the “Subjects experiencing at least one TEAE: Abdominal pain” value [3] was 0 (0.0) No. (%) and the “Subjects experiencing … Arthralgia” value [3] was 0 (0.0) No. (%). The “Subjects experiencing at least one TEAE: Back pain” value [3] was 1 (16.7) No. (%), the “Subjects experiencing … Diarrhea” value [3] was 1 (16.7) No. (%) and the “Subjects experiencing … Flank pain” value [3] was 0 (0.0) No. (%). For the same molecule, the “Subjects experiencing at least one TEAE: Gastrointestinal disorders” value [3] was 2 (33.3) No. (%), the “Subjects experiencing … Headache” value [3] was 1 (16.7) No. (%) and the “Subjects experiencing at least one TEAE: Injury, poisoning, and procedural complications” value [3] was 0 (0.0) No. (%). The “Subjects experiencing at least one TEAE: Musculoskeletal and connective tissue disorders” value [3] was 1 (16.7) No. (%), the “Subjects experiencing … Nausea” value [3] was 0 (0.0) No. (%) and the “Subjects experiencing … Neck pain” value [3] was 0 (0.0) No. (%). For the same molecule, the “Subjects experiencing at least one TEAE: Nervous system disorders” value [3] was 1 (16.7) No. (%), the “Subjects experiencing … in extremity” value [3] was 0 (0.0) No. (%) and the “Subjects experiencing at least one TEAE: Sciatica, back pain” value [3] was 0 (0.0) No. (%). For the same molecule, the “Subjects experiencing … Skin abrasion” value [3] was 0 (0.0) No. (%), the “Subjects experiencing … Total” value [3] was 2 (33.3) No. (%) and the “Subjects experiencing at least one TEAE: Upper abdominal pain” value [3] was 0 (0.0) No. (%). For the same molecule, the “Subjects experiencing … Vomiting” value [3] was 2 (33.3) No. (%), the “Subjects experiencing at least one TEAE: Abdominal pain” value [4] was 0 (0.0) No. (%) and the “Subjects experiencing … Arthralgia” value [4] was 0 (0.0) No. (%). For the same molecule, the “Subjects experiencing at least one TEAE: Back pain” value [4] was 0 (0.0) No. (%), the “Subjects experiencing … Diarrhea” value [4] was 0 (0.0) No. (%) and the “Subjects experiencing … Flank pain” value [4] was 0 (0.0) No. (%). For the same molecule, the “Subjects experiencing … Headache” value [4] was 0 (0.0) No. (%), the “Subjects experiencing at least one TEAE: Injury, poisoning, and procedural complications” value [4] was 0 (0.0) No. (%) and the “Subjects experiencing at least one TEAE: Musculoskeletal and connective tissue disorders” value [4] was 0 (0.0) No. (%). The “Subjects experiencing … Nausea” value [4] was 0 (0.0) No. (%), the “Subjects experiencing … Neck pain” value [4] was 0 (0.0) No. (%) and the “Subjects experiencing at least one TEAE: Nervous system disorders” value [4] was 0 (0.0) No. (%). For the same molecule, the “Subjects experiencing … in extremity” value [4] was 0 (0.0) No. (%), the “Subjects experiencing at least one TEAE: Sciatica, back pain” value [4] was 0 (0.0) No. (%) and the “Subjects experiencing … Skin abrasion” value [4] was 0 (0.0) No. (%).
